Measured values as given in US11612606B2, “8-aminoisoquinoline compounds and uses thereof” (priority 2018, dated 2023).
Where a name gives a salt, the structure may show the parent alone. Read-outs that look alike come from different tables or passages of the source.

Biological target: HPK full length, T165E S171E (Homo sapiens (Human), UniProt Q92918, S171E/T165E)
Test: HPK1-FL HTRF enzymatic assay ("HTRF")
Format: biochemical
Conditions: ATP 1 mM
Description: Assay Principle: HPK-FL enzyme phosphorylates Biotin-SLP-76 substrate in the presence of ATP at […] and varying concentrations of test compound. Product is detected by FRET using Eu-anti-pSLP76 Ab and SA-XL665. Also see www.cisbio.com/HTRF for additional HTRF technology information.
Instrumentation: Echo555 compound dispenser; Agilent Bravo; Perkin Elmer Envision.
To a 384 well Proxiplate with 80 nL compound or DMSO spotted on was added 4 μl/well kinase mix. The mixture was preincubated for 30 minutes and then 4 μl/well substrate mix was added. The solution was incubated for 60 min and then 4 μl/well detection mix was added. The solution was incubated for another 60 min.
Exemplary compounds were tested in the HTRF binding assays.

Sequence of HPK full length, T165E S171E (Q92918 whole entry T165E/S171E, looked up): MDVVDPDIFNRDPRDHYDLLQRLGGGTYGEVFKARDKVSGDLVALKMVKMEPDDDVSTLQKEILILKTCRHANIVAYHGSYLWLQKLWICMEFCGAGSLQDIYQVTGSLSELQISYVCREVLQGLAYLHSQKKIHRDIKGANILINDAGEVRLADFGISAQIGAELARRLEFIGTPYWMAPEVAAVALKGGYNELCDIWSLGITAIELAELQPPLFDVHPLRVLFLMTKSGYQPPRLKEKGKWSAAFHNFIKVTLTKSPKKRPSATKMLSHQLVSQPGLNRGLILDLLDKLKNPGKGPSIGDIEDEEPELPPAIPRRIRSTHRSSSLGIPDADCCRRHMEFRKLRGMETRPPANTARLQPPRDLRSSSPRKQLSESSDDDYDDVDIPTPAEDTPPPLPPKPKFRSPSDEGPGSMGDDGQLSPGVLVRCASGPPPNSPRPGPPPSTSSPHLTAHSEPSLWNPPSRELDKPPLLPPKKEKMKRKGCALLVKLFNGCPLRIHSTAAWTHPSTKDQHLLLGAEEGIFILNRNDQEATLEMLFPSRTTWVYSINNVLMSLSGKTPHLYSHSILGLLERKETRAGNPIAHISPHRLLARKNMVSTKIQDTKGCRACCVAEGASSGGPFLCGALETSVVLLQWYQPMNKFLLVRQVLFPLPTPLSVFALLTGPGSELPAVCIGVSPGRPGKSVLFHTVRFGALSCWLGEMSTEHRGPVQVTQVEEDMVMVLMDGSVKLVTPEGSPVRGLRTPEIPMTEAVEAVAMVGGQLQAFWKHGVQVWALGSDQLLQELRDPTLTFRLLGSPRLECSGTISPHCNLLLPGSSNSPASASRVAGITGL

Compound	Ki (read-out: HPK1 Ki) [pM]	Ki (HPK1 Ki) [pM]
Cc1c(-c2cc3cc(NC(=O)O[C@@H]4CCO[C@@H]4C)ncc3c(N)c2F)cnc2c1NCCO2 (single isomer, unassigned) [Compound 510d]	16	–
Cc1c(-c2cc3cc(NC(=O)O[C@H]4CO[C@]5(CCN(C)C5)C4)ncc3c(N)c2F)cnc2c1NCCO2 (relative stereo) [Compound 467b, (3R,5R)-7-Methyl-1-oxa-7-azaspiro[4.4]nonan-3-yl(8-amino-7-fluoro-6-(8-methyl-2,3-dihydro-1H-pyrido[2,3-b][1,4]oxazin-7-yl)isoquinolin-3-yl)carbamate]	64	–
Cc1c(-c2cc3cc(NC(=O)O[C@H]4C[C@@H](C#N)C4)ncc3c(N)c2F)cnc2c1NCCC2 [Compound 483a, (1s,3s)-3-Cyanocyclobutyl (8-amino-7-fluoro-6-(4-methyl-5,6,7,8-tetrahydro-1,5-naphthyridin-3-yl)isoquinolin-3-yl)carbamate]	< 13	–
CC[C@]1(O)C[C@H](OC(=O)Nc2cc3cc(-c4cnc5c(c4C)NCCO5)c(F)c(N)c3cn2)C1 [Compound 512a, (1s,3r)-3-Ethyl-3-hydroxycyclobutyl (8-amino-7-fluoro-6-(8-methyl-2,3-dihydro-1H-pyrido[2,3-b][1,4]oxazin-7-yl)isoquinolin-3-yl)carbamate]	15	–
Cc1c(-c2cc3cc(NC(=O)OC4CCN(CC(F)(F)F)CC4)ncc3c(N)c2F)cnc2c1NCCO2 [Compound 422, 1-(2,2,2-Trifluoroethyl)piperidin-4-yl (8-amino-7-fluoro-6-(8-methyl-2,3-dihydro-1H-pyrido[2,3-b][1,4]oxazin-7-yl)isoquinolin-3-yl)carbamate]	23	–
Cc1c(-c2cc3cc(NC(=O)OC4CCNCC4)ncc3c(N)c2F)cnc2c1NCCO2 [Compound 404, Piperidin-4-yl (8-amino-7-fluoro-6-(8-methyl-2,3-dihydro-1H-pyrido[2,3-b][1,4]oxazin-7-yl)isoquinolin-3-yl)carbamate]	30	–
Cc1c(-c2cc3cc(NC(=O)O[C@@H]4CN(C)C[C@H]4F)ncc3c(N)c2F)cnc2c1NCCO2 [Compound 452b, (3R,4R)-4-Fluoro-1-methylpyrrolidin-3-yl (8-amino-7-fluoro-6-(8-methyl-2,3-dihydro-1H-pyrido[2,3-b][1,4]oxazin-7-yl)isoquinolin-3-yl)carbamate]	–	36
Cc1c(N)cncc1-c1cc2cc(NC(=O)O[C@H]3C[C@@H](C#N)C3)ncc2c(N)c1F [Compound 534a, (1s,3s)-3-Cyanocyclobutyl (8-amino-6-(5-amino-4-methylpyridin-3-yl)-7-fluoroisoquinolin-3-yl)carbamate]	140	–
Cc1c(-c2cc3cc(NC(=O)NC(C)C)ncc3c(N)c2F)cnc2c1NCCO2 [Compound 746, 1-(8-Amino-7-fluoro-6-(8-methyl-2,3-dihydro-1H-pyrido[2,3-b][1,4]oxazin-7-yl)isoquinolin-3-yl)-3-isopropylurea]	< 13	–
Cc1c(-c2cc3cc(NC(=O)N[C@H]4C[C@H](F)C4)ncc3c(N)c2F)cnc2c1NCCC2 [Compound 732a, 1-(8-amino-7-fluoro-6-(4-methyl-5,6,7,8-tetrahydro-1,5-naphthyridin-3-yl)isoquinolin-3-yl)-3-((1r,3r)-3-fluorocyclobutyl)urea]	< 13	–
Cc1c(-c2cc3cc(NC(=O)O[C@H]4CC[C@@](C)(O)C4)ncc3c(N)c2F)cnc2c1NCCO2 (single isomer, unassigned) [Compound 533c, hydrochloride]	14	–
Cc1c(-c2cc3cc(NC(=O)O[C@H]4Cc5ncnn5C4)ncc3c(N)c2F)cnc2c1NCCO2 (single isomer, unassigned) [Compound 578b]	150	–
Cc1c(-c2cc3cc(NC(=O)O[C@@H]4COC[C@H]4C4CC4)ncc3c(N)c2F)cnc2c1NCCO2 (single isomer, unassigned) [Compound 516b]	< 13	–
Cc1c(-c2cc3cc(NC(=O)O[C@H]4CC[C@@H]4C)ncc3c(N)c2F)cnc2c1NCCO2 [Compound 559b, [(1S,2S)-2-methylcyclobutyl]N-[8-amino-7-fluoro-6-(8-methyl-2,3-dihydro-1H-pyrido[2,3-b][1,4]oxazin-7-yl)-3-isoquinolyl]carbamate]	140	–
Cc1c(-c2cc3cc(NC(=O)N[C@@H]4C[C@@H]4C)ncc3c(N)c2F)cnc2c1NCCO2 (single isomer, unassigned) [Compound 736b]	< 13	–
Cc1c(-c2cc3cc(NC(=O)O[C@H]4CC[C@H]4O)ncc3c(N)c2F)cnc2c1NCCO2 [Compound 542a, (1S,2R)-2-Hydroxycyclobutyl (8-amino-7-fluoro-6-(8-methyl-2,3-dihydro-1H-pyrido[2,3-b][1,4]oxazin-7-yl)isoquinolin-3-yl)carbamate]	–	330
CO[C@@H]1COCC[C@@H]1NC(=O)Nc1cc2cc(-c3cnc4c(c3C)NCCO4)c(F)c(N)c2cn1 (single isomer, unassigned) [Compound 750a]	960	–
Cc1c(-c2cc3cc(NC(=O)N[C@@H]4CC[C@H]4C#N)ncc3c(N)c2F)cnc2c1NCCO2 (relative stereo) [Compound 712ab, 1-(8-Amino-7-fluoro-6-(8-methyl-2,3-dihydro-1H-pyrido[2,3-b][1,4]oxazin-7-yl)isoquinolin-3-yl)-3-(trans-2-cyanocyclobutyl)urea]	< 13	–

Compound	Ki (read-out: HPK1 Ki) [pM]	Ki (HPK1 Ki) [pM]
CN[C@H]1CCCC[C@@H]1OC(=O)Nc1cc2cc(-c3cnc4c(c3C)NCCO4)c(F)c(N)c2cn1 (single isomer, unassigned) [Compound 415a]	3000	–
Cc1c(-c2cc3cc(NC(=O)NC4CCC4)ncc3c(N)c2F)cnc2c1NCCO2 [Compound 707, 1-(8-Amino-7-fluoro-6-(8-methyl-2,3-dihydro-1H-pyrido[2,3-b][1,4]oxazin-7-yl)isoquinolin-3-yl)-3-cyclobutylurea]	< 13	–
CO[C@@H]1CC[C@@H](NC(=O)Nc2cc3cc(-c4cnc5c(c4C)NCCO5)c(F)c(N)c3cn2)C1 [Compound 730a, 1-(8-amino-7-fluoro-6-(8-methyl-2,3-dihydro-1H-pyrido[2,3-b][1,4]oxazin-7-yl)isoquinolin-3-yl)-3-((1R,3R)-3-methoxycyclopentyl)urea]	–	< 13
Cc1c(-c2cc3cc(NC(=O)O[C@@H]4CC[C@@H]4C)ncc3c(N)c2F)cnc2c1NCCO2 (single isomer, unassigned) [Compound 559c]	< 13	–
Cc1c(-c2cc3cc(NC(=O)O[C@H]4CO[C@@]5(CCN(C)C5)C4)ncc3c(N)c2F)cnc2c1NCCO2 (single isomer, unassigned) [Compound 467d]	< 13	–
CN[C@H]1C[C@H](OC(=O)Nc2cc3cc(-c4cnc5c(c4C)NCCO5)c(F)c(N)c3cn2)C1 [Compound 539a, (1r,3r)-3-(Methylamino)cyclobutyl (8-amino-7-fluoro-6-(8-methyl-2,3-dihydro-1H-pyrido[2,3-b][1,4]oxazin-7-yl)isoquinolin-3-yl)carbamate]	< 13	–
CCc1c(-c2cc3cc(NC(=O)O[C@H]4CC(=O)N(C)C4)ncc3c(N)c2F)cnc2c1NCCO2 (single isomer, unassigned) [Compound 444b]	< 13	–
Cc1c(-c2cc3cc(NC(=O)O[C@H]4C[C@@H]([C@@H](C)O)C4)ncc3c(N)c2F)cnc2c1NCCO2 (single isomer, unassigned) [Compound 573d]	< 13	–
Cc1c(-c2cc3cc(NC(=O)O[C@@H]4Cc5nccn5C4)ncc3c(N)c2F)cnc2c1NCCO2 (single isomer, unassigned) [Compound 504a]	< 13	–
Cc1c(-c2cc3cc(NC(=O)O[C@@H]4COC[C@H]4C)ncc3c(N)c2F)cnc2c1NCCO2 (racemic) [Compound 441ab, (±)-trans-4-Methyltetrahydrofuran-3-yl (8-amino-7-fluoro-6-(8-methyl-2,3-dihydro-1H-pyrido[2,3-b][1,4]oxazin-7-yl)isoquinolin-3-yl)carbamate]	37	–
Cc1c(-c2cc3cc(NC(=O)O[C@H]4COC[C@@H]4C)ncc3c(N)c2F)cnc2c1NC(=O)CO2 (single isomer, unassigned) [Compound 558a, hydrochloride]	900	–
Cc1c(-c2cc3cc(NC(=O)O[C@H]4C[C@@H](C(=O)N(C)C)C4)ncc3c(N)c2F)cnc2c1NCCO2 [Compound 519a, (1s,3s)-3-(Dimethylcarbamoyl)cyclobutyl (8-amino-7-fluoro-6-(8-methyl-2,3-dihydro-1H-pyrido[2,3-b][1,4]oxazin-7-yl)isoquinolin-3-yl)carbamate]	< 13	–
Cc1c(-c2cc3cc(NC(=O)O[C@H]4CCC(=O)N(C)C4)ncc3c(N)c2F)cnc2c1NCCO2 [Compound 409a, (S)-1-Methyl-6-oxopiperidin-3-yl (8-amino-7-fluoro-6-(8-methyl-2,3-dihydro-1H-pyrido[2,3-b][1,4]oxazin-7-yl)isoquinolin-3-yl)carbamate]	53	–
Cc1c(-c2cc3cc(NC(=O)O[C@H]4COCCN(C)C4)ncc3c(N)c2F)cnc2c1NCCO2 (single isomer, unassigned) [Compound 440a]	84	–
Cc1c(-c2cc3cc(NC(=O)OC4CCOCC4)ncc3c(N)c2F)cnc2c1NCC[C@H]2C (single isomer, unassigned) [Compound 461a]	891	–
CC(=O)N1CC[C@@H](OC(=O)Nc2cc3cc(-c4cnc5c(c4C)NCCO5)c(F)c(N)c3cn2)[C@@H](F)C1 (single isomer, unassigned) [Compound 437b]	54	–
Cc1c(-c2cc3cc(NC(=O)O[C@@H]4CCOC4)ncc3c(N)c2F)cnc2c1NCC(CO)C2 (mixture of isomers) [Compound 581a, (R)-Tetrahydrofuran-3-yl (8-amino-7-fluoro-6-(7-(hydroxymethyl)-4-methyl-5,6,7,8-tetrahydro-1,5-naphthyridin-3-yl)isoquinolin-3-yl)carbamate]	430	–
